Experimental data: paper PMC12505254, “PROTAC Enabling Formulation In Vivo: Implications of the Polymeric Carrier Eudragit E PO” (Molecular Pharmaceutics, 2025)
≈ marks a conversion by molar mass, not a printed value. Like-named read-outs stand apart in the source and are kept apart here.

Key:
[1] = Two-stage precipitation assay simulating the conditions in mice; format: physicochemical
Description: To determine the dissolution and precipitation of both the Kolliphor solution vehicle and the SDD dispersion in citrate vehicle upon the GI passage in vitro, a two-stage precipitation assay was conducted which had been developed internally. Therefore, the Kolliphor vehicle containing MS4078 and the dispersion of the SDD in citrate vehicle were prepared according to the descriptions in Sections and , respectively.
According to McConnell et al., the volume of gastric fluid in mice is about 175 μL. […]
The setup of the two-stage precipitation experiments and an overview of the samples are depicted in Figure and Table . […] The concentration of MS4078 was determined by sampling and UHPLC analysis or the turbidity of the samples was analyzed in-line using the Cary3500 (Agilent, Santa Clara, CA, USA) (Figure D). […] As a first step, the optical density (OD) of the cFaSSIF types, Blank-DM (citrate vehicle/SGF pH 4 mixture without polymer or API) and P-DM (a solution of E PO in citrate vehicle/SGF pH 4 mixture) were measured in a range of 200–800 nm (Figure S2). […]
1 Schematic setup of the two-stage precipitation experiments. […] All samples were centrifuged (15,000 rpm (Mikro 200 R)) for 60 s, and the supernatant was diluted with ACN and analyzed via UHPLC (see Section ). […]

[2] = Solubility of MS4078 in buffer and cFaSSIF types (24 h, 37°C); format: physicochemical; conditions: thermodynamic from solid
Description: The solubility of MS4078 was evaluated by weighing an excess amount of the compound into vials and adding a prewarmed buffer or cFaSSIF types (cFaSSIF1x , cFaSSIF5 x , and cFaSSIF10x ). The suspension was stirred at 37°C for 24 h at 300 rpm. Samples were withdrawn from the suspension, and centrifuged at 15000 rpm (Mikro 200 R, Hettich, Tuttlingen, Germany) and the supernatant was diluted 1:1 with ACN. The dissolved concentration was determined by ultraperformance liquid chromatography (UHPLC, see Section ). The experiments were carried out in triplicate.
UHPLC analysis of MS4078 is described in detail in a previous publication of our group. In brief, the samples were analyzed at 271 nm using a Waters Acquity H-Class series UHPLC system (Waters Corporation, Eschborn, Germany). A gradient was applied using ACN and water with 0.1% (V/V) trifluoracetic acid as mobile phases. Separation was realized by a Waters Acquity BEH C8 column (2.1 × 50 mm, 1.7 μm).

[3] = Pharmacokinetic study in mice (K–V i.v./p.o., SDD-V p.o.); format: in vivo, mice (female CD-1); conditions: 0.5 mg/kg in K–V
Description: To evaluate the in vivo performance of the MS4078 SDD formulation, pharmacokinetic studies in mice were conducted and compared to the corresponding Kolliphor solution vehicle. The API in Kolliphor vehicle (see Section ) and the SDD formulation were given in a single-dose study to female CD-1 mice (Charles River Laboratories, Sulzfeld, Germany). The animals were kept in group housing in conventional cages with elevated grids. Food and water were offered ad libitum to the animals.
The study was carried out at EMD Serono (Billerica, MA, USA). A total of 21 mice (female, CD-1) were divided into groups of 12 and 9 animals. The solution vehicle was prepared according to Section . Doses of 0.5 mg/kg of MS4078 were administered intravenously (dose volume: 5 mL/kg) to 12 animals and blood samples (retro-orbital) were sequentially drawn from 3 animals per sampling point at 0.1, 0.25, 0.5, 1, 2, 6, and 24 h after dosing. 10 mg/kg were administered orally (dose volume: 10 mL/kg) to the second group of 9 animals. After dosing, blood samples from 3 animals per sampling point were sequentially drawn at the time points described above, except for the 0.1 h sampling point. The blood cells were dissevered by centrifugation (2000 g, 5 min). Plasma samples were extracted using a protein precipitation reagent (ACN, 4:1 (V/V)). After the addition of 50 μL methanol, the concentration was determined by LC-MS/MS (generic method, based on tuning data).
Mouse PK studies of the enabling formulation were conducted at Nuvisan GmbH (Grafing, Germany). To determine oral bioavailability of MS4078/SDD, the SDD formulation (dose: 10 mg/kg MS4078) was weighed in, dispersed in a citrate vehicle (see Section ), and administered orally (gavage, dose volume: 10 mL/kg) to three female mice (Crl:CD1(ICR)). […] 50 μL of supernatant were diluted 1:1 with a solution of 0.1% formic acid in water and the concentration of MS4078 was determined by UHPLC-MS/MS (generic method, based on tuning data).
Plasma concentrations were determined for each time point sampled. […]

Cc1cc(Nc2ncc(Cl)c(Nc3ccccc3S(=O)(=O)C(C)C)n2)c(OC(C)C)cc1C1CCN(CC(=O)NCCNc2cccc3c2C(=O)N(C2CCC(=O)NC2=O)C3=O)CC1 (centres unmarked) [MS4078]
Dissolved MS4078 concentration in acceptor compartment maintained until end of experiment ([1]; SDD-DM transferred to cFaSSIF10x, from the 20 min sampling point): 30 µg/mL
Dissolved MS4078 concentration in acceptor compartment after phase separation (plateau) ([1]; SDD-DM transferred to cFaSSIF20x): ~220 µg/mL
solubility at 24 h ([2]; aqueous buffer, citrate-phosphate buffer pH 5, 37°C, read-out: Solubility): ~2 µg/mL (≈ 2.19 µM)
solubility at 24 h ([2]; fassgf or other biorelevant, cFaSSIF5x pH 5, 37°C, read-out: Solubility in 5x concentrated cFaSSIF): ~220 µg/mL (≈ 241 µM)
solubility at 24 h ([2]; fassif, cFaSSIF1x pH 5, 37°C, read-out: Solubility S(cFaSSIF1x)): 78 µg/mL (≈ 85.3 µM)
in vivo total clearance as % mouse liver blood flow [3]: 20 % mouse liver blood flow
clearance ([3]; female, CD-1, mouse, plasma, iv, read-out: in vivo total clearance (converted)): 20.3 mL/min/kg
Vd ([3]; female, CD-1, mouse, plasma, iv, read-out: volume of distribution (Vss)): 1.05 L/kg
